Measured values published in ChEMBL document CHEMBL3091289, “Design of fluorinated 5-HT(4)R antagonists: influence of the basicity and lipophilicity toward the 5-HT(4)R binding affinities” (Bioorg Med Chem, 2013).

Experiments:
[1] = target: 5-hydroxytryptamine receptor 4 (Cavia porcellus) (UniProt O70528); assay: Displacement of [3H]GR113808 from 5HT4R in guinea pig striatal membranes at 10^-8 M; format: cell membranes; settings: Striatum, Membrane
[2] = target: 5-hydroxytryptamine receptor 4 (Cavia porcellus) (UniProt O70528); assay: Displacement of [3H]GR113808 from 5HT4R in guinea pig striatal membranes at 10^-6 M; format: cell membranes; settings: Striatum, Membrane
[3] = target: 5-hydroxytryptamine receptor 4 (Cavia porcellus, UniProt O70528); assay: Displacement of [3H]GR113808 from 5HT4R in guinea pig striatal membranes; format: cell membranes, Striatum, Membrane
[4] = target: 5-hydroxytryptamine receptor 7 (Homo sapiens, UniProt P34969); assay: Binding affinity to human 5HT7
[5] = target: 5-hydroxytryptamine receptor 6 (Homo sapiens, UniProt P50406); assay: Binding affinity to human 5HT6
[6] = target: 5-hydroxytryptamine receptor 5A (Homo sapiens, UniProt P47898); assay: Binding affinity to human 5HT5A
[7] = target: T1, 5-hydroxytryptamine receptor 3A (Homo sapiens, UniProt P46098); assay: Binding affinity to human 5HT3
T1 sequence (P46098 whole entry): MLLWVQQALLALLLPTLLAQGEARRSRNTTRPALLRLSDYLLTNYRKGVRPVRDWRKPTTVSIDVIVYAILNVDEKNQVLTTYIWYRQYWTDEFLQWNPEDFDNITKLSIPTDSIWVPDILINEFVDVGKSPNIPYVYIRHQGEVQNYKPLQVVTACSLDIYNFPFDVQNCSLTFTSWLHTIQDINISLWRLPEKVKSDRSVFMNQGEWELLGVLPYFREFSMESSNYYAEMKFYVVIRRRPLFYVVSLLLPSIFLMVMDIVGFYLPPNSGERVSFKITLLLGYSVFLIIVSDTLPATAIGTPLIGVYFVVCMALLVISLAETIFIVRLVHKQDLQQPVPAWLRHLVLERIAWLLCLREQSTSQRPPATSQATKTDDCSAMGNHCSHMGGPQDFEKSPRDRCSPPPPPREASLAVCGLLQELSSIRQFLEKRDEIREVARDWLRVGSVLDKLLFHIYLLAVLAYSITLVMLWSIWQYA

[8] = target: 5-hydroxytryptamine receptor 2B (Homo sapiens, UniProt P41595); assay: Binding affinity to human 5HT2B
[9] = target: T2, 5-hydroxytryptamine receptor 2C (Homo sapiens, UniProt P28335); assay: Binding affinity to human 5HT2C
T2 sequence (P28335 whole entry): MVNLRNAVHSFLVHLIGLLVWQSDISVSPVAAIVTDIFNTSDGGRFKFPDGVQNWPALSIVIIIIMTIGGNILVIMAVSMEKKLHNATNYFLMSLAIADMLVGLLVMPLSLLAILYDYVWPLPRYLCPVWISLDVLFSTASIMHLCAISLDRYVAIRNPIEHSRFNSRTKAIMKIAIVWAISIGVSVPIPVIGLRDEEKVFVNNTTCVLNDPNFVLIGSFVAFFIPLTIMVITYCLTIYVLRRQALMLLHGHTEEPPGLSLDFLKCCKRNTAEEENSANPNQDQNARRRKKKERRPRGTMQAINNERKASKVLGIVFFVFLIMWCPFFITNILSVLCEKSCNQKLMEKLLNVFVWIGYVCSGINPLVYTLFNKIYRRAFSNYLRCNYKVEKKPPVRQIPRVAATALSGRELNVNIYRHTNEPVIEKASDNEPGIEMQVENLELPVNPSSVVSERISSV

[10] = target: 5-hydroxytryptamine receptor 2A (Homo sapiens, UniProt P28223); assay: Binding affinity to human 5HT2A
[11] = target: 5-hydroxytryptamine receptor 1D (Homo sapiens, UniProt P28221); assay: Binding affinity to human 5HT1D
[12] = target: 5-hydroxytryptamine receptor 1B (Homo sapiens, UniProt P28222); assay: Binding affinity to human 5HT1B
[13] = target: T3, 5-hydroxytryptamine receptor 1A (Homo sapiens, UniProt P08908); assay: Binding affinity to human 5HT1A
T3 sequence (P08908 whole entry): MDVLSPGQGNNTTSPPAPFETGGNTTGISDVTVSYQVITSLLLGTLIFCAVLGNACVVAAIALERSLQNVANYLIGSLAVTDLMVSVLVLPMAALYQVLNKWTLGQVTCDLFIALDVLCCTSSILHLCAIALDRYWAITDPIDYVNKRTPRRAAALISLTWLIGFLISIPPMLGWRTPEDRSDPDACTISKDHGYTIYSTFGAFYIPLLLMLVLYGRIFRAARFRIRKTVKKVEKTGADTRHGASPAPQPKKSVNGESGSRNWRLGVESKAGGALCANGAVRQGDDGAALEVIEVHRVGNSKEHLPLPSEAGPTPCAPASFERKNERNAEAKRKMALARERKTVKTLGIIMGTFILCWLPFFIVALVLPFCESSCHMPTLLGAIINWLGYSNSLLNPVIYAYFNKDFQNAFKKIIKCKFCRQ

[14] = target: T4, 5-hydroxytryptamine receptor 4 (Homo sapiens, UniProt Q13639); assay: Intrinsic activity at human 5HT4R
[15] = target: T4, 5-hydroxytryptamine receptor 4; assay: Binding affinity to human 5HT4R

T4 sequence (Q13639 whole entry): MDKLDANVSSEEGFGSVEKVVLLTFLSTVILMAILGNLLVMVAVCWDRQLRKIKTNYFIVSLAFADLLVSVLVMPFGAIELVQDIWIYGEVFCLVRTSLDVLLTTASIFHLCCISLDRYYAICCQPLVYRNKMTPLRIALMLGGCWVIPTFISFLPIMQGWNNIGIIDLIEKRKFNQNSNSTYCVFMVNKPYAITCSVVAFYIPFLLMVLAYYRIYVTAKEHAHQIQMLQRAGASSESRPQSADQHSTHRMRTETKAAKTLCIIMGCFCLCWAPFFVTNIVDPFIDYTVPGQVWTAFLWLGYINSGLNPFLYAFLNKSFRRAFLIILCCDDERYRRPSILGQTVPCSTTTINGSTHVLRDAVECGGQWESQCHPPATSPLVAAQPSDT
5-hydroxytryptamine receptor 4 (Cavia porcellus), sequence (O70528 whole entry): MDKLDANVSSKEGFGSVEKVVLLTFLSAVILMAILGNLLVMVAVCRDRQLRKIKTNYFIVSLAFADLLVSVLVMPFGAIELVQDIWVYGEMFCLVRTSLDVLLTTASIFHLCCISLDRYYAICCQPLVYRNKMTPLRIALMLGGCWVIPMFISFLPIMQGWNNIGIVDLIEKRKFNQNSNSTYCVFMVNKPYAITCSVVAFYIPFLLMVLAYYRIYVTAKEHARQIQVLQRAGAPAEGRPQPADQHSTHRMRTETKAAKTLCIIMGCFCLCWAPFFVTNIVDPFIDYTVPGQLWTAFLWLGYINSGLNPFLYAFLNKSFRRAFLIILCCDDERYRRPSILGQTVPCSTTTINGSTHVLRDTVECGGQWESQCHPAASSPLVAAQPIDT
5-hydroxytryptamine receptor 4 (Cavia porcellus, UniProt O70528), sequence (O70528 whole entry): as above
5-hydroxytryptamine receptor 6, sequence (P50406 whole entry): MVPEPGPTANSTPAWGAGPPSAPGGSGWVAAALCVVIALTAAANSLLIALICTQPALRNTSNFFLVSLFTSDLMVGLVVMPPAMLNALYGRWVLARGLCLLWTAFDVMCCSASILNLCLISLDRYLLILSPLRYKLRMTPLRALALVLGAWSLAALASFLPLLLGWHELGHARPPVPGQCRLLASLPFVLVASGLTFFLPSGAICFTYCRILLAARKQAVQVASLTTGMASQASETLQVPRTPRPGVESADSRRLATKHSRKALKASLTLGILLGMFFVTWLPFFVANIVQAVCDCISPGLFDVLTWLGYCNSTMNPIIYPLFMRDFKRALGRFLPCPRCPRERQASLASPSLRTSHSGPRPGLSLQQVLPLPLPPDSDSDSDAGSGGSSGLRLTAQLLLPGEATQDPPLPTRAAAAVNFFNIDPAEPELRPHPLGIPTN
5-hydroxytryptamine receptor 1D, sequence (P28221 whole entry): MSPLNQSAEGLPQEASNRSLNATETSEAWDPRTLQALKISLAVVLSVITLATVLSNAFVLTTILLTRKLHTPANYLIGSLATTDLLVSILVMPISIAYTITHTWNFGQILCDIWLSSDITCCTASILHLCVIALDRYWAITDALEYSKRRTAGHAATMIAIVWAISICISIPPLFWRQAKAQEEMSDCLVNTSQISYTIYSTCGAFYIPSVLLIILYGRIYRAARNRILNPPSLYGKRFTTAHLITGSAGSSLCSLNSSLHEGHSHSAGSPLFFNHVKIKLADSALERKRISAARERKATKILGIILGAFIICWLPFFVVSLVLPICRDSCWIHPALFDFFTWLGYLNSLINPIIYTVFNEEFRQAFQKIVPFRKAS
5-hydroxytryptamine receptor 2B, sequence (P41595 whole entry): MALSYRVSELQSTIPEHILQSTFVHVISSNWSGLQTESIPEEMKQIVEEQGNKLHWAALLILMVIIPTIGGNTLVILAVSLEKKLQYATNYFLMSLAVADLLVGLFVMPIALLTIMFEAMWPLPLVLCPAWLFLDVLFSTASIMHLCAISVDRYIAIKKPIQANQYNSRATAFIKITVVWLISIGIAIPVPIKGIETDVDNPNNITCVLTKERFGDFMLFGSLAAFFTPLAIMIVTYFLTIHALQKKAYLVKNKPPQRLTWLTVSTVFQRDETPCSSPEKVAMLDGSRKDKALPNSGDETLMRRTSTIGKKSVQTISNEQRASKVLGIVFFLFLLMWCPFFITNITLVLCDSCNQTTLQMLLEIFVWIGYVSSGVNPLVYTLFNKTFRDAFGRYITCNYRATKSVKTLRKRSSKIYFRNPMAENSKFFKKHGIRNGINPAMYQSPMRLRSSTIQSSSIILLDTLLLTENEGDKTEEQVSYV
5-hydroxytryptamine receptor 2A, sequence (P28223 whole entry): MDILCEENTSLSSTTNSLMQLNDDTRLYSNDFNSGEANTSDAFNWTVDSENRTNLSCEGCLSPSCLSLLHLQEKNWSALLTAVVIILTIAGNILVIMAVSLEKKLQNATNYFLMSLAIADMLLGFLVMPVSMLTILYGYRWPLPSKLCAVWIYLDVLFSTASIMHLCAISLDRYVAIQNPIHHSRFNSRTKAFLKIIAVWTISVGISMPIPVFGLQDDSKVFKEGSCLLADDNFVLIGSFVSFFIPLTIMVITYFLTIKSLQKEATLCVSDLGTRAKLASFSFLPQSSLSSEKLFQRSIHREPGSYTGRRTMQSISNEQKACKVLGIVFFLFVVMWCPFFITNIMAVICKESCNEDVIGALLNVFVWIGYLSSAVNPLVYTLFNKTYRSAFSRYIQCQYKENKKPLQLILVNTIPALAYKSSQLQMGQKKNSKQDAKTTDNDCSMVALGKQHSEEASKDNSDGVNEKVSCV
5-hydroxytryptamine receptor 5A, sequence (P47898 whole entry): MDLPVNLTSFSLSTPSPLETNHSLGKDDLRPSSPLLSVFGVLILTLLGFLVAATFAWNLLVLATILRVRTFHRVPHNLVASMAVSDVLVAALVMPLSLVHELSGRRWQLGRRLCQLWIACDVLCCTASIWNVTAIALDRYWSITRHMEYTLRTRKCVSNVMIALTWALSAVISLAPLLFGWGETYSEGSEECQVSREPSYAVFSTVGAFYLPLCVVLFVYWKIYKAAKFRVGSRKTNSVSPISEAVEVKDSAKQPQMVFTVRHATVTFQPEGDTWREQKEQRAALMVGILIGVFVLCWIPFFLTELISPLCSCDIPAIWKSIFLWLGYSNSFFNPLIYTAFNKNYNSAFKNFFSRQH
5-hydroxytryptamine receptor 1B, sequence (P28222 whole entry): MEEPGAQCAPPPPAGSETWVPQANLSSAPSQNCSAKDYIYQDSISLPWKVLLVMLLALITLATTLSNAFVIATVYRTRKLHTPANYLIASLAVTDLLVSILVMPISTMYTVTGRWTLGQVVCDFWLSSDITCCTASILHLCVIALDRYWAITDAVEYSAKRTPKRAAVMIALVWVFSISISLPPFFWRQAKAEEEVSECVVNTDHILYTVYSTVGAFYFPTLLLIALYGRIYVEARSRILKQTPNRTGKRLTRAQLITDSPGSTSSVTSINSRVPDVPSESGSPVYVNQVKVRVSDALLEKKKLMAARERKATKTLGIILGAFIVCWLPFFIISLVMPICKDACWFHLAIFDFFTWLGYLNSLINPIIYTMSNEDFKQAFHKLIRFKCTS
5-hydroxytryptamine receptor 7, sequence (P34969 whole entry): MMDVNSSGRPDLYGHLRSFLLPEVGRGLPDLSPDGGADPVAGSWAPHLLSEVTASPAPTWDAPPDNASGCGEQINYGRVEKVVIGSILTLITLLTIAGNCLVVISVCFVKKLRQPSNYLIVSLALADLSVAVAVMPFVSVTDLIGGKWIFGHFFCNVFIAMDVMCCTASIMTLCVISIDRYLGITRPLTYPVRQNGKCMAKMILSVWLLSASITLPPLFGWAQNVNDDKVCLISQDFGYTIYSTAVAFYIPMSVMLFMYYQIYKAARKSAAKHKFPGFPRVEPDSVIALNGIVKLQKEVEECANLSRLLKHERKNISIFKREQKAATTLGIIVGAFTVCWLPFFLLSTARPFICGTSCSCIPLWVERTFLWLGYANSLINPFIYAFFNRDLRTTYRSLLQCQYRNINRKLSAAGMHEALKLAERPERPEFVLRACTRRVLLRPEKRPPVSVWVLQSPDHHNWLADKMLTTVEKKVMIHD

| inhibition [1] [%] | inhibition [2] [%] | Ki [3] [nM] | SMILES | also measured |
| --- | --- | --- | --- | --- |
| 0 | 1 |  | FC(F)(F)C(F)(F)CN1CCC(COc2nc3ccccc3c3ccccc23)CC1 |  |
| 0 | 93 |  | Fc1cccc2c1nc(OCC1CCN(CC(F)F)CC1)c1ccccc12 |  |
| 0 | 58 |  | FC(F)CN1CCC(COc2nc3ccccc3c3ccccc23)CC1 |  |
| 49 | 100 | 14.1 | Fc1cccc2c1nc(OCC1CCN(CCCC(F)(F)F)CC1)c1ccccc12 |  |
| 0 | 4 |  | Fc1cccc2c1nc(OCC1CCN(CC(F)(F)C(F)(F)F)CC1)c1ccccc12 |  |
| 80 | 100 | 4.2 | Fc1cccc2c1nc(OCC1CCN(CCCC(F)(F)F)CC1)c1cccnc12 | Ki [4]: > 10000 nM; Ki [5]: > 10000 nM; Ki [6]: > 10000 nM; Ki [7]: 2600 nM; Ki [8]: 190 nM; Ki [9]: 980 nM; Ki [10]: 8700 nM; Ki [11]: > 10000 nM; Ki [12]: > 10000 nM; Ki [13]: > 10000 nM; Kb [14]: 0.199 nM; Ki [15]: 0.2 nM |
| 80 | 100 | 9 | Fc1cccc2c1nc(OCC1CCN(CCC(F)(F)F)CC1)c1cccnc12 | Ki [4]: > 10000 nM; Ki [5]: > 10000 nM; Ki [6]: > 10000 nM; Ki [7]: 1200 nM; Ki [8]: 230 nM; Ki [9]: > 10000 nM; Ki [10]: > 10000 nM; Ki [11]: > 10000 nM; Ki [12]: > 10000 nM; Ki [13]: > 10000 nM; Kb [14]: 0.079 nM; Ki [15]: 0.11 nM |
| 61 | 100 | 22 | Fc1cccc2c1nc(OCC1CCN(CCC(F)(F)F)CC1)c1ccccc12 |  |
| 0 | 3 |  | Fc1cccc2c1nc(OCC1CCN(CC(F)(F)F)CC1)c1ccccc12 |  |
| 0 | 1 |  | FC(F)(F)CN1CCC(COc2nc3ccccc3c3ccccc23)CC1 |  |
| 26 | 100 | 91.4 | Fc1cccc2c1nc(OCC1CCN(CC(F)F)CC1)c1cccnc12 |  |

| SMILES | inhibition [1] [%] | inhibition [2] [%] | Ki [3] [nM] | also measured |
| --- | --- | --- | --- | --- |
| CCCN1CCC(COc2nc3c(F)cccc3c3ncccc23)CC1 | 94 |  |  |  |
